36 molecules from the supplement of paper PMC8967900 can be followed below.

Test systems include DND-41; CCRF-CEM; ALL-SIL.
Common to all, as to assay: selective drug sensitivity score (sDSS, relative to normal bone marrow) (sDSS (score)); higher = more potent and effective on the cell line relative to normal bone marrow cells
Common to all, as to settings: 72 h
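Further: ALL cell lines in 384-well plates, five doses spanning 10,000-fold, each plate scaled between vehicle and 100 µmol/L benzalkonium chloride controls, sDSS an adapted area-under-curve metric.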

For `COc1cc2c(Oc3ccc(NC(=O)C4(C(=O)Nc5ccc(F)cc5)CC4)cc3F)ccnc2cc1OCCCN1CCOCC1` [Foretinib] (top concentration 1000 nM), the “selective drug sensitivity score” value was -4.46 in the test on DND-41, 0.64 with CCRF-CEM and 13.6 in the test with ALL-SIL.

As for `COc1cc(Nc2ncc(F)c(Nc3ccc4c(n3)N(COP(=O)(O)O)C(=O)C(C)(C)O4)n2)cc(OC)c1OC` [Fostamatinib] (top concentration 2500 nM), the “selective drug sensitivity score” value in the test with DND-41 was -0.64; with CCRF-CEM it was -2.34; in the test with ALL-SIL, 1.96.

With `CC1(C)OCCn2c1nc1c(N3CCOCC3)nc(-c3cnc(N)nc3)nc12` [GDC-0084] (top concentration 10000 nM), the figures for the “selective drug sensitivity score” value with DND-41, in the test on CCRF-CEM and in the test on ALL-SIL were 1.8, 6.9 and 4.8, respectively.

For `CC(C)c1cc(-c2n[nH]c(=O)n2-c2ccc3c(ccn3C)c2)c(O)cc1O` [Ganetespib] (top concentration 1000 nM), the “selective drug sensitivity score” value in the test on DND-41 stood at 2.94; with CCRF-CEM it was 2.04; in the test with ALL-SIL, 1.14.

As for `CCc1nc(C(N)=O)c(Nc2ccc(N3CCC(N4CCN(C)CC4)CC3)c(OC)c2)nc1NC1CCOCC1` [Gilteritinib] (top concentration 1000 nM), the results for the “selective drug sensitivity score” value in the test on DND-41, with CCRF-CEM and in the test with ALL-SIL were -2.52, -2.42 and -2.52, respectively.

On to `CCN(CC)Cc1ccc2cc(COC(=O)Nc3ccc(C(=O)NO)cc3)ccc2c1` [Givinostat] (top concentration 1000 nM), for which the “selective drug sensitivity score” value in the test with DND-41 is 2.4; in the test on CCRF-CEM, 3.6; with ALL-SIL, 8.6.

Turning to `COCCNCc1ccc(-c2cc3nccc(Oc4ccc(NC(=S)NC(=O)Cc5ccc(F)cc5)cc4F)c3s2)nc1` [Glesatinib] (top concentration 2500 nM), the “selective drug sensitivity score” value with DND-41 was 0.44; in the test on CCRF-CEM it was -1.06; with ALL-SIL it was 10.4.

As for `C=CC(=O)N1CCC[C@@H](n2nc(-c3ccc(Oc4ccccc4)cc3)c3c(N)ncnc32)C1` [Ibrutinib] (top concentration 1000 nM), the “selective drug sensitivity score” value in the test on DND-41 is 0; in the test with CCRF-CEM, 0.1; in the test with ALL-SIL it was 0.

`CC[C@H](Nc1ncnc2[nH]cnc12)c1nc2cccc(F)c2c(=O)n1-c1ccccc1` [Idelalisib] (top concentration 10000 nM): the “selective drug sensitivity score” value in the test with DND-41 was -1.16; in the test with CCRF-CEM, 3.64; in the test on ALL-SIL, 0.04.

On to `O=C(Nc1ccncc1)C(=O)c1cn(Cc2ccc(Cl)cc2)c2ccccc12` [Indibulin] (top concentration 10000 nM), for which the “selective drug sensitivity score” value in the test on DND-41 stood at 5.54; in the test with CCRF-CEM it was 6.04; with ALL-SIL it was 23.4.

`CC(C)C[C@H](NC(=O)CNC(=O)c1cc(Cl)ccc1Cl)B(O)O` [Ixazomib] (top concentration 1000 nM): the results for the “selective drug sensitivity score” value with DND-41, in the test with CCRF-CEM and with ALL-SIL were 9.36, 10.5 and 7.56, respectively.

Regarding `CC(C)NC(=O)COc1cccc(-c2nc(Nc3ccc4[nH]ncc4c3)c3ccccc3n2)c1` [KD025] (top concentration 5000 nM), the “selective drug sensitivity score” value with DND-41 is -5.36; with CCRF-CEM, -0.66; in the test on ALL-SIL it was 1.24.

As for `Nc1cccc2c1CN(C1CCC(=O)NC1=O)C2=O` (stereo not drawn) [Lenalidomide] (top concentration 100000 nM), the “selective drug sensitivity score” value is 2.12 in the test on DND-41, 0.92 with CCRF-CEM and -0.88 in the test on ALL-SIL.

For the molecule `Sc1ncnc2nc[nH]c12` [Mercaptopurine] (top concentration 10000 nM), the “selective drug sensitivity score” value is 11.1 with DND-41, 14.1 in the test with CCRF-CEM and 14.8 in the test on ALL-SIL.

In the case of `Cc1ccc(C(=O)Nc2ccc(Oc3cc4cnn(C)c4cc3-c3cn[nH]c3)c(F)c2)c(=O)n1-c1ccc(F)cc1` [Merestinib] (top concentration 1000 nM), the “selective drug sensitivity score” value was -0.62 in the test on DND-41, -0.62 in the test with CCRF-CEM and 0.28 in the test on ALL-SIL.

Regarding `CNC(=O)c1nn(C)c2c1C(C)(C)Cc1cnc(Nc3ccc(N4CCN(C)CC4)cc3)nc1-2` [Milciclib] (top concentration 10000 nM), the “selective drug sensitivity score” value with DND-41 came out at 9.04; in the test with CCRF-CEM it was 2.04; with ALL-SIL it was 10.9.

For `N#CCNC(=O)c1ccc(-c2ccnc(Nc3ccc(N4CCOCC4)cc3)n2)cc1` [Momelotinib] (top concentration 10000 nM), the entries for the “selective drug sensitivity score” value in the test on DND-41, in the test with CCRF-CEM and in the test on ALL-SIL were -0.32, -2.52 and -1.82, respectively.

As to `Cc1ccc(C(=O)Nc2cccc(C(F)(F)F)c2)cc1Nc1nc(-c2cccnc2)nc2c1cnn2C` [NVP-BHG712] (top concentration 10000 nM), the results for the “selective drug sensitivity score” value with DND-41, with CCRF-CEM and with ALL-SIL were 5.38, 3.38 and 13.3, respectively.

In the case of `Cn1c(Nc2ccc(C(F)(F)F)cc2)nc2cc(Oc3ccnc(-c4ncc(C(F)(F)F)[nH]4)c3)ccc21` [NVP-RAF265] (top concentration 1000 nM), the “selective drug sensitivity score” value in the test with DND-41 is 3.58; with CCRF-CEM, 4.88; in the test on ALL-SIL, 8.28.

In the case of `CC1(C)CC[C@]2(NC(=O)C(C)(F)F)CC[C@]3(C)[C@H](C(=O)C=C4[C@@]5(C)C=C(C#N)C(=O)C(C)(C)[C@@H]5CC[C@]43C)[C@@H]2C1` [Omaveloxolone] (top concentration 10000 nM), the “selective drug sensitivity score” value in the test on DND-41 was determined as 3.98; with CCRF-CEM, 0.78; in the test with ALL-SIL it was 1.28.

With `CC(C)c1cc(C(=O)N2Cc3ccc(CN4CCN(C)CC4)cc3C2)c(O)cc1O` [Onalespib] (top concentration 2500 nM), the “selective drug sensitivity score” value with DND-41 came out at 4.62; in the test on CCRF-CEM, 4.62; in the test on ALL-SIL it was 4.52.

With `COC[C@H](NC(=O)c1cnc(C)s1)C(=O)N[C@@H](COC)C(=O)N[C@@H](Cc1ccccc1)C(=O)[C@@]1(C)CO1` [Oprozomib] (top concentration 2500 nM), the “selective drug sensitivity score” value is 11.1 in the test on DND-41, 6.9 in the test on CCRF-CEM and -0.1 with ALL-SIL.

For `COc1ccccc1S(=O)(=O)Nc1ccc2c(c1)CN(C)C(=O)N2` [PFI-1] (top concentration 30000 nM), the “selective drug sensitivity score” value with DND-41 was 2.3; in the test with CCRF-CEM it was 1.4; in the test on ALL-SIL, 2.

For `NS(=O)(=O)OC[C@@H]1C[C@@H](n2ccc3c(N[C@H]4CCc5ccccc54)ncnc32)C[C@@H]1O` [Pevonedistat] (top concentration 10000 nM), the “selective drug sensitivity score” value was 10.1 in the test on DND-41, 16.4 in the test with CCRF-CEM and 13.1 with ALL-SIL.

As for `CCCCc1nc2cc(/C=C/C(=O)NO)ccc2n1CCN(CC)CC` [Pracinostat] (top concentration 10000 nM), the “selective drug sensitivity score” value was determined as 3.48 in the test on DND-41, 4.68 in the test with CCRF-CEM and 5.18 with ALL-SIL.

Consider `COc1cccc(OCCCN)c1-c1cc(Nc2cnc(C#N)cn2)n[nH]1` [Prexasertib] (top concentration 10000 nM), for which the “selective drug sensitivity score” value with DND-41 was 19.6; in the test on CCRF-CEM it was 18.8; in the test on ALL-SIL it was 20.8.

Take `Cc1cn(-c2cc(NC(=O)c3ccc(C)c(Nc4nccc(-c5cnccn5)n4)c3)cc(C(F)(F)F)c2)cn1` [Radotinib] (top concentration 10000 nM): the “selective drug sensitivity score” value amounted to 13.8 in the test with DND-41, 0 in the test with CCRF-CEM and 43.3 in the test with ALL-SIL.

For `Cn1nccc1Nc1nccc(-c2ccn([C@H](CO)c3ccc(Cl)c(F)c3)c(=O)c2)n1` [Ravoxertinib] (top concentration 10000 nM), the “selective drug sensitivity score” value was 4.5 in the test on DND-41, 2 in the test on CCRF-CEM and -3.2 in the test on ALL-SIL.

Turning to `C/C=C1\NC(=O)[C@H]2CSSCC/C=C/[C@H](CC(=O)N[C@H](C(C)C)C(=O)N2)OC(=O)[C@H](C(C)C)NC1=O` [Romidepsin] (top concentration 1000 nM), the “selective drug sensitivity score” value in the test on DND-41 was 4.76; in the test with CCRF-CEM, 1.16; in the test with ALL-SIL, 3.26.

As for `CNCc1ccc(-c2[nH]c3cc(F)cc4c3c2CCNC4=O)cc1` [Rucaparib] (top concentration 10000 nM), the “selective drug sensitivity score” value was -0.38 in the test with DND-41, 1.32 in the test with CCRF-CEM and 0.22 in the test on ALL-SIL.

In the case of `CC(C)(C)c1cnc(CSc2cnc(NC(=O)C3CCNCC3)s2)o1` [SNS-032] (top concentration 10000 nM), the “selective drug sensitivity score” value in the test on DND-41 was -2.44; with CCRF-CEM, -1.74; with ALL-SIL it was -3.84.

For `Cc1c(C(=O)Nc2ccc(N3C[C@@H](C)O[C@@H](C)C3)nc2)cccc1-c1ccc(OC(F)(F)F)cc1` [Sonidegib] (top concentration 10000 nM), the “selective drug sensitivity score” value with DND-41 is 5.08; with CCRF-CEM, -0.12; in the test with ALL-SIL it was 1.08.

Regarding `CNC(=O)c1cc(Oc2ccc(NC(=O)Nc3ccc(Cl)c(C(F)(F)F)c3)cc2)ccn1` [Sorafenib] (top concentration 1000 nM), the “selective drug sensitivity score” value in the test with DND-41, in the test on CCRF-CEM and with ALL-SIL was 0 in each case.

Take `CN1CCN(c2nc(C3=C(c4c[nH]c5ccccc45)C(=O)NC3=O)c3ccccc3n2)CC1` [Sotrastaurin] (top concentration 10000 nM): the results for the “selective drug sensitivity score” value in the test on DND-41, in the test on CCRF-CEM and in the test with ALL-SIL were 0.3, -0.1 and 2.7, respectively.

Take `Cc1cc(C(C)Nc2ccccc2)c2nc(N3CCOCC3)cc(=O)n2c1` (stereo not drawn) [TGX-221] (top concentration 10000 nM): the entries for the “selective drug sensitivity score” value in the test with DND-41, in the test on CCRF-CEM and with ALL-SIL were -1.64, -0.54 and -1.64, respectively.

As to `Cc1nc(-c2cn3c(n2)-c2ccc(-c4cnn(C(C)(C)C(N)=O)c4)cc2OCC3)n(C(C)C)n1` [Taselisib] (top concentration 1000 nM), the “selective drug sensitivity score” value with DND-41 was -4.3; in the test on CCRF-CEM it was 3.9; in the test on ALL-SIL, 1.2.
